# Results: patent EP3991726A1, “ANTI-INFLAMMATORY COMPOSITION COMPRISING PALMITOYLETHANOLAMIDE AND PHYCOCYANIN” (priority 2020, dated 2022)
# Experiments:
# [1] = system: human pulmonary epithelium cell line BEAS-2B; test: ROS measured as fluorescence emission of intracellular probe DCF-DA after LPS or Poly I:C stimulus; type: cell-based; conditions: stimulus LPS or PIC, PC and PEA 1 µM for 48h, Figure 1
# Experimental: (§1) The cells were treated with PC and PEA 1 µM for 48h. The ROS (which are powerful oxidants) were measured as fluorescence emission of the intracellular probe DCF-DA (dichlorofluorescein diacetate). The toxicity was measured as release of an intracellular enzyme (lactate dehydrogenase LDH) in the extracellular medium; the release is proportional to the toxicity and is measured with a spectrophotometer.
# [2] = system: human pulmonary epithelium BEAS-2B; test: Cell proliferation by crystal violet colouring; type: cell-based; conditions: tested in the range 10 nM - 1 µM
# Experimental: (§2) In a model of human pulmonary epithelium BEAS-2B (ATCC - CRL-9609), PC and PEA were tested in the range 10 nM - 1 µM.
# [3] = target: T1, COX-2 (human) (Homo sapiens, UniProt P35354); test: COX-2 (human) Inhibitor Screening Assay Kit, in vitro ELISA method; type: biochemical; conditions: Cayman Chemical # 701080
# T1 construct: purchased Cayman Chemical 701080
# T1 sequence (P35354 18-604): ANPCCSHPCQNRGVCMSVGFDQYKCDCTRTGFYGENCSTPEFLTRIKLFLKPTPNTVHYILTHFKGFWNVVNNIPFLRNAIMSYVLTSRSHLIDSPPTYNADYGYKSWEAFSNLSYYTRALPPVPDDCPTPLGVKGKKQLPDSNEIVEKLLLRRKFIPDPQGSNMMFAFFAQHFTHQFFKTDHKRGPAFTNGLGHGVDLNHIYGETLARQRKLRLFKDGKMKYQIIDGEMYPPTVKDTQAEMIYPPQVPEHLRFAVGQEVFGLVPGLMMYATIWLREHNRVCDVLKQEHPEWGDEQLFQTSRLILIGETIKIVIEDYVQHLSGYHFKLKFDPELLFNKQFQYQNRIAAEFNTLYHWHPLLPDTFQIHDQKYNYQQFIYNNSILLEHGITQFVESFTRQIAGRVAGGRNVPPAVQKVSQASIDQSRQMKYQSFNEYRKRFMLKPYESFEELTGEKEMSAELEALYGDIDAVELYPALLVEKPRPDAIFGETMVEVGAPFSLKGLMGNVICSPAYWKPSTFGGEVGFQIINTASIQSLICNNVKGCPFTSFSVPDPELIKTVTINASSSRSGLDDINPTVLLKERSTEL
# Source text: Measurement of the IC50 in an in vitro test (ELISA method - COX-2 (human) Inhibitor Screening Assay Kit, # 701080, Cayman Chemical) gave the following results.
# [4] = system: human pulmonary epithelium BEAS-2B; test: MTT test for cytotoxicity; type: cell-based; conditions: tested in the range 10 nM - 1 µM
# Experimental: as §2
# [5] = system: human pulmonary epithelium cell line BEAS-2B; test: Toxicity as lactate dehydrogenase (LDH) release after LPS or Poly I:C stimulus; type: cell-based; conditions: stimulus LPS or PIC, PC and PEA 1 µM for 48h, Figure 1
# Experimental: as §1
# [6] = system: transcripts for subunits 2 and 4 of complex IV of the mitochondrial respiratory chain (COX2 and COX4) and two subunits of the ATP synthase mitochondrial enzyme …; test: Mitochondrial respiratory chain and ATP synthase transcripts by real-time PCR; type: cell-based, human; conditions: BEAS-2B, bacterial (LPS) or viral (PIC) stimulus, PC and PEA 1 µM for 24h, Figure 3
# Experimental: The cells were treated with PC and PEA 1 µM for 24h. The transcripts for subunits 2 and 4 of complex IV of the mitochondrial respiratory chain (COX2 and COX4) and the transcripts for two subunits of the ATP synthase mitochondrial enzyme (ATP mit and ATP n) were measured by means of real-time PCR.
# [7] = system: interleukin 8 (IL-8) transcript; test: IL-8 transcript by real-time PCR after inflammatory stimulus; type: cell-based, human; conditions: BEAS-2B, bacterial (LPS) or viral (PIC) stimulus, PC and PEA 1 µM for 24h, Figure 2
# Experimental: The cells were treated with PC and PEA 1 µM for 24h. The interleukin 8 (IL-8) transcript was measured by means of real-time PCR.
smiles,measurement,setting,value
"CCCCCCCCCCCCCCCC(=O)NCCO [PEA, palmitoylethanolamide]","oxidative stress (ROS, DCF-DA fluorescence)",[1],protect from oxidative stress
same,"effect on cell growth (proliferation, crystal violet)",[2],no effect on cell growth
same,IC50,[3],575 nM
same,toxicity (MTT test),[4],absence of toxicity
same,toxicity (LDH release in the extracellular medium),[5],protect from oxidative stress and toxicity
same,"activation of the mitochondrial respiratory burst (COX2, COX4, ATP mit, ATP n transcripts)",[6],reduce activation of the mitochondrial respiratory burst
same,production of inflammatory cytokines (IL-8 transcript),[7],reduce the production of inflammatory cytokines
